Columns and labels:
[1] = target: GluN1-1a/GluN2B NMDAR (wildtype) (Rattus norvegicus, UniProt P35439+Q00960); assay type: cell-based; settings: TEVC, wildtype
[2] = test system: more than 100 relevant receptors, transporters and enzymes including adrenergic (α1), dopaminergic (D1, D2), opioid (κ, μ, δ) and serotonergic receptors …; design: method as in earlier work; settings: concentration of 1 - 3 µM; ref 2 (Tewes et al., Bioorg. Med. Chem. 2010); cited from earlier work

Chain of GluN1-1a/GluN2B NMDAR (wildtype) (Q00960 27-1482, other chains not shown): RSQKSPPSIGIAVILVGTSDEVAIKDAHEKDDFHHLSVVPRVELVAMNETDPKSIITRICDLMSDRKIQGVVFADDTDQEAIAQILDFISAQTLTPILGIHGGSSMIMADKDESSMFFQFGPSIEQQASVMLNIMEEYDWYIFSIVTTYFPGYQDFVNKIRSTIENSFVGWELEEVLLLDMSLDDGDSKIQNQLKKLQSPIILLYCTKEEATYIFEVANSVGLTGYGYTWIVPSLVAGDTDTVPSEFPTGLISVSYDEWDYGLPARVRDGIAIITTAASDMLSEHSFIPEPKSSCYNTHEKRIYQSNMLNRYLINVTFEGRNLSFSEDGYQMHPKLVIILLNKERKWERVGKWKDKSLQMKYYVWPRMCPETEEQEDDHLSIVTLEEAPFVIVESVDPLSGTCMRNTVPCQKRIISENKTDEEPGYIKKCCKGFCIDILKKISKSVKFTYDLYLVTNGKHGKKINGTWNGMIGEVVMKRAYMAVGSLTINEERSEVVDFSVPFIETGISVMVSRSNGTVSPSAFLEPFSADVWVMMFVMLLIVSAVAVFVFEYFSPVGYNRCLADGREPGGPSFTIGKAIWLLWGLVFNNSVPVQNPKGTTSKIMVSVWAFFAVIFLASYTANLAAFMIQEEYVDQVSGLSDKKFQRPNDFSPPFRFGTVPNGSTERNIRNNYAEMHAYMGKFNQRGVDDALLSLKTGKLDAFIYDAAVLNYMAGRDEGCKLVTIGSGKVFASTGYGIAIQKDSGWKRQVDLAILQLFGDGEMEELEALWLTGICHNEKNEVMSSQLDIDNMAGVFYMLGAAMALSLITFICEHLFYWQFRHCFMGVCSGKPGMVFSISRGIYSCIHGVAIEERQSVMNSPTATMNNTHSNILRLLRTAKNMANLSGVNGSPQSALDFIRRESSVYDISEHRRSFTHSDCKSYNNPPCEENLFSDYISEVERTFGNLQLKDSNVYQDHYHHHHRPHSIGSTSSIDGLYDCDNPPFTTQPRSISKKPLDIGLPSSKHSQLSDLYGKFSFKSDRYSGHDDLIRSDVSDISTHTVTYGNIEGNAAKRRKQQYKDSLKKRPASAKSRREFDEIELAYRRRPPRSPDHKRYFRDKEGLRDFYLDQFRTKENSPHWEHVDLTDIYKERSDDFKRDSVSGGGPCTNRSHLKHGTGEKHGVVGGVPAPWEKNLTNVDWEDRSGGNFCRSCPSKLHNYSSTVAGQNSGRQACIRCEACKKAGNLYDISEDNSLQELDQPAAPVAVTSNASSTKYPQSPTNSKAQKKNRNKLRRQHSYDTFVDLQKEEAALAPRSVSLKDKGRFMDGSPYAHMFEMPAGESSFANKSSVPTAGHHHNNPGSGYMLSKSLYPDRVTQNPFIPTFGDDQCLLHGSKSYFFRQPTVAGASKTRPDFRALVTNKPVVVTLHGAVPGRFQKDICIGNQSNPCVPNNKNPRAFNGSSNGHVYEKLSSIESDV

For Oc1ccc2c(c1)CCN(CCCCc1ccccc1)CC2O (racemic) [compound rac-1], the IC50 ([1]; holding potential −70 mV, 10 µM glycine and 10 µM (S)-glutamate, read-out: IC50 ± SE) was 94 ± 8 nM, the “p (slope of the dose-response curve)” value ([1]; −70 mV) was 1.25 and the “A2 ± SE (maximum inhibition from dose-response curve)” value ([1]; −70 mV, flexible A2) was 93 ± 2%. For the same molecule, the “competition with the employed radioligands” value [2] was “did not compete”.
